{"source": "patent US20240059729A1", "about": "“MULTIFUNCTIONAL CYCLIC DINUCLEOTIDE AND USE THEREOF” (TYLIGAND BIOSCIENCE (SHANGHAI) LIMITED, priority 2020, published 2024)", "experiment": "Discovery and identification of metabolites in hepatocytes", "type": "in vitro ADME, mouse, rat, dog, monkey, human", "conditions": "5 species of hepatocytes, 240 min; FIG. 4-B", "text": "The main metabolites of the compounds of the invention in 5 species (mouse, rat, dog, monkey, human) of hepatocytes were similarly identified according to standard methods of in vitro metabolic stability studies conventional in the art, for example (Kems, Edward H. and Di Li (2008). Drug-like Properties: Concepts, Structure Design and Methods: From ADME to Toxicity Optimization, San Diego: Academic Press; Di, Li et al, Optimization of a High Throughput Microsomal Stability Screening Assay for Profiling Drug Discovery Candidates, J Biomol Screen. 2003, 8(4), 453).\nThe hepatocytes used in the experiment: human hepatocytes (SHQY, Cat. #BQHPCH10, Lot. #HEP190006-TA05), dog hepatocytes (BioIVT, Cat. #M00205, Lot. #ZMB); monkey hepatocytes (XENOTECH, Cat. #PPCH2000, Lot. #2010022), rat hepatocytes (SHQY, Cat. #BQR1000⋅H15, Lot. #HEP134049), and mouse hepatocytes (BioIVT, Cat. #M005052, Lot. #MEO).\nA HI hepatocyte maintenance medium (BIOIVT, Cat. #Z99009; Lot. #C02060C) was pre-warmed to 37° C. Cryopreserved hepatocyte tubes were removed from a liquid nitrogen tank and immediately placed in a shaking water bath at 37±1° C. for 2 minutes±15 seconds. […] The hepatocytes were counted and then the cell suspension was diluted in HI medium to the appropriate density (viable cell density=2×10^6 cells/mL). […]", "note": "Structures can show the parent of a compound that is named as a salt.", "data": [{"smiles": "Nc1nc2c(ncn2[C@@H]2O[C@@H]3CO[P@@](=O)(S)OC4C(F)[C@H](n5cnc6c(N)nc(Cl)nc65)O[C@@H]4CO[P@@](=O)(S)OC2C3O)c(=O)[nH]1", "note": "(stereo partly drawn) [Example 10, (2′,3′)-cyclo-(Rp,Rp)-[2′-O-phosphorothioate-diester-guanosine]-[3′-O-phosphorothioate-diester-2-chloro-2′-deoxy-2′-fluoro-beta-adenosine] diammonium salt]", "values": [{"measurement": "Main metabolite in hepatocytes", "result": "Clofarabine"}]}]}
